Eight compounds from patent publication US20250296971A1, “GASTRIC INHIBITORY PEPTIDE RECEPTOR LIGANDS” (priority 2021, published 2025) can be followed below.

This assay deals with T1, GIPR (CHO-K1-hGIPR cells) (Homo sapiens, UniProt P48546).
T1 construct: host or cells: CHO-K1
T1 sequence (P48546 22-466): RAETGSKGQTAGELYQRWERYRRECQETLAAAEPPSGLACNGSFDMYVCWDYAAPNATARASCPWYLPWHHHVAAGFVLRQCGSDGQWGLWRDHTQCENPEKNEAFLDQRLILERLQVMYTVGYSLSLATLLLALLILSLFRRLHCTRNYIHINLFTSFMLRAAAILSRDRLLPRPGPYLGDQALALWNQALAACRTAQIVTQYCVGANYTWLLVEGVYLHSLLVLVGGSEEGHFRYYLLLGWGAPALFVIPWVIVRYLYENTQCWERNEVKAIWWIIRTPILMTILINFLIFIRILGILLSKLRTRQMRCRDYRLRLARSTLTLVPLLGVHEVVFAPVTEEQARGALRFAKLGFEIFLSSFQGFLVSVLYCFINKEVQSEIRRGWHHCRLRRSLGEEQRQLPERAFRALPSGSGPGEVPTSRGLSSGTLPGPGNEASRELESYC
Briefly: FACS binding assay. As to conditions: competition with 20 nM GIP-057, 4° C., 1 hour. The method in brief: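 CHO-K1 cells stably expressing human GIPR were detached with Accutase, suspended at 500.000 cells per mL in PBS with 1% FCS, and washed ice-cold. Bound peptide was detected with 1 μg/mL APC-streptavidin for 30 min on ice.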

Setting [1] is: read-out: pIC50 Category (converted).

Where two headings read alike, the source gives them in different places. *1 amine or outer side, *2 acyl side, *3 side chain or, on linkers, in order; H or OH if unused. Where a SMILES comes first, the peptide text is derived from it. Bridges are numbered along the chain shown (N, C = ends). Side-chain parts run from the residue outwards. [ ]: non-standard residue; d: D form. The star is where a group is joined. X17 = O=C(CC[C@H](NC(=O)CN1CCN2CCN3CCN(CC1)CC(=O)[O][Lu]([O]C(=O)C2)[O]C(=O)C3)C(=O)*)NC[C@H](O)[C@@H](O)[C@H](O)[C@H](O)CO; X20 = O=C(CC[C@H](NC(=O)CN1CCN2CCN3CCN(CC1)CC(=O)[O][Ga]([O]C(=O)C2)[O]C(=O)C3)C(=O)*)NC[C@H](O)[C@@H](O)[C@H](O)[C@H](O)CO; X5 = NC(=O)[C@H](CCCCNC(=O)CN1CCN(CC(=O)O)CCN(CC(=O)O)CCN(CC(=O)O)CC1)NC(=O)CCC(=O)NCCCOCCOCCOCCCN*; DOTA(Ga) = O=C1CN2CCN3CCN(CC(=O)*)CCN(CC2)CC(=O)[O][Ga]([O]1)[O]C(=O)C3; DOTA(Lu) = O=C1CN2CCN3CCN(CC(=O)*)CCN(CC2)CC(=O)[O][Lu]([O]1)[O]C(=O)C3; X27 = O=C1CN2CCN3CCN(CC(=O)*)CCN(CC2)CC(=O)[O][Eu]([O]1)[O]C(=O)C3; NH(1-deoxy-D-glucityl) = OC[C@@H](O)[C@@H](O)[C@H](O)[C@@H](O)CN*; DOTA = O=C(O)CN1CCN(CC(=O)O)CCN(CC(=O)*)CCN(CC(=O)O)CC1; Trp(5-Cl) = N[C@@H](Cc1c[nH]c2ccc(Cl)cc12)C(=O)O; Pyridine(2,6-diCH2) = c1cc(C[*:1])nc(C[*:2])c1; Pro(4R-NH2) = N[C@H]1CN[C@H](C(=O)O)C1; 1Nal = N[C@@H](Cc1cccc2ccccc12)C(=O)O; mXylylene = c1cc(C[*:1])cc(C[*:2])c1; Glutaryl = O=C(CCCC(=O)[*:2])[*:1]; Hyp = O=C(O)[C@@H]1C[C@@H](O)CN1; X1 = O=C(CN1CCC(N[*:1])CC1)[*:2]; Suc = O=C(CCC(=O)[*:2])[*:1]; Api = NC1(C(=O)O)CCNCC1; Thp = NC1(C(=O)O)CCOCC1; Aib = CC(C)(N)C(=O)O

Under “pIC50 Category”, `CC[C@H](C)[C@@H]1NC(=O)[C@H](CC(C)C)NC(=O)C2(CCN(C(=O)[C@H](CCC(=O)NC[C@H](O)[C@@H](O)[C@H](O)[C@H](O)CO)NC(=O)CN3CCN4CCN5CCN(CC3)CC(=O)[O][Ga]([O]C(=O)C4)[O]C(=O)C5)CC2)NC(=O)[C@@H](NC(=O)[C@@H](CC(C)C)NC(=O)[C@H](CCC(=O)O)NC(=O)[C@@H]2C[C@@H](N)CN2C(=O)[C@H](Cc2c[nH]c3ccc(Cl)cc23)NC(=O)[C@H](Cc2c[nH]c3ccccc23)NC(=O)[C@H](CC(=O)O)NC(=O)CN2CCC(NC(=O)CCCC(=O)NC[C@H](O)[C@@H](O)[C@H](O)[C@H](O)CO)CC2)CSCc2cccc(n2)CSC[C@@H](C(=O)NC2CCN(CC(=O)N[C@H](CCC(=O)NC[C@H](O)[C@@H](O)[C@H](O)[C@H](O)CO)C(N)=O)CC2)NC1=O` [GIP-059, AGLU-Glutar-APAc-Asp-Trp-5Clw-Tap-Glu-leu-[Cys(2Lut)-Apc(GaDOTA-glu(AGLU))-Leu-Ile-Cys]-APAc-glu(AGLU)-NH2] ({NH(1-deoxy-D-glucityl)-Glutaryl}-[X1]DW[Trp(5-Cl)][Pro(4R-NH2)]E[dL]C[Api](X20)LIC[X1][dE](NH(1-deoxy-D-glucityl))-NH2; linker 8-12 via Pyridine(2,6-diCH2)) gave an IC50 of less than 0.01 µM.

The compound `CC[C@H](C)[C@@H]1NC(=O)[C@H](CC(C)C)NC(=O)C2(CCN(C(=O)[C@H](CCC(=O)NC[C@H](O)[C@@H](O)[C@H](O)[C@H](O)CO)NC(=O)CN3CCN4CCN5CCN(CC3)CC(=O)[O][Lu]([O]C(=O)C4)[O]C(=O)C5)CC2)NC(=O)[C@@H](NC(=O)[C@@H](CC(C)C)NC(=O)[C@H](CCC(=O)O)NC(=O)[C@@H]2C[C@@H](N)CN2C(=O)[C@H](Cc2c[nH]c3ccc(Cl)cc23)NC(=O)[C@H](Cc2c[nH]c3ccccc23)NC(=O)[C@H](CC(=O)O)NC(=O)CN2CCC(NC(=O)CCCC(=O)NC[C@H](O)[C@@H](O)[C@H](O)[C@H](O)CO)CC2)CSCc2cccc(n2)CSC[C@@H](C(=O)NC2CCN(CC(=O)N[C@H](CCC(=O)NC[C@H](O)[C@@H](O)[C@H](O)[C@H](O)CO)C(N)=O)CC2)NC1=O` [GIP-061, AGLU-Glutar-APAc-Asp-Trp-5Clw-Tap-Glu-leu-[Cys(2Lut)-Apc(LuDOTA-glu(AGLU))-Leu-Ile-Cys]-APAc-glu(AGLU)-NH2] ({NH(1-deoxy-D-glucityl)-Glutaryl}-[X1]DW[Trp(5-Cl)][Pro(4R-NH2)]E[dL]C[Api](X17)LIC[X1][dE](NH(1-deoxy-D-glucityl))-NH2; linker 8-12 via Pyridine(2,6-diCH2)) returned an IC50 (pIC50 Category) of less than 0.01 µM.

`CC[C@H](C)[C@@H]1NC(=O)[C@H](CC(C)C)NC(=O)C2(CCOCC2)NC(=O)[C@@H](NC(=O)[C@@H](CC(C)C)NC(=O)[C@H](CCC(=O)O)NC(=O)[C@@H]2C[C@@H](O)CN2C(=O)[C@H](Cc2c[nH]c3ccc(Cl)cc23)NC(=O)[C@H](Cc2c[nH]c3ccccc23)NC(=O)[C@H](CC(=O)O)NC(=O)CN2CCC(NC(=O)[C@@H](CCC(=O)NC[C@H](O)[C@@H](O)[C@H](O)[C@H](O)CO)NC(=O)CN3CCN4CCN5CCN(CC3)CC(=O)[O][Lu]([O]C(=O)C4)[O]C(=O)C5)CC2)CSCc2cccc(n2)CSC[C@@H](C(=O)NC2CCN(CC(=O)N[C@H](CCC(=O)NC[C@H](O)[C@@H](O)[C@H](O)[C@H](O)CO)C(N)=O)CC2)NC1=O` [GIP-062, LuDOTA-glu(AGLU)-APAc-Asp-Trp-5Clw-Hyp-Glu-leu-[Cys(2Lut)-Thp-Leu-Ile-Cys]-APAc-glu(AGLU)-NH2] ({DOTA(Lu)}-[dE](NH(1-deoxy-D-glucityl))[X1]DW[Trp(5-Cl)][Hyp]E[dL]C[Thp]LIC[X1][dE](NH(1-deoxy-D-glucityl))-NH2; linker 9-13 via Pyridine(2,6-diCH2)) registered an IC50 (pIC50 Category) of less than 0.01 µM.

`CC[C@H](C)[C@@H]1NC(=O)[C@H](CC(C)C)NC(=O)C2(CCOCC2)NC(=O)[C@@H](NC(=O)[C@@H](CC(C)C)NC(=O)[C@H](CCC(=O)O)NC(=O)[C@@H]2C[C@@H](O)CN2C(=O)[C@H](Cc2c[nH]c3ccc(Cl)cc23)NC(=O)[C@H](Cc2c[nH]c3ccccc23)NC(=O)[C@H](CC(=O)O)NC(=O)CN2CCC(NC(=O)[C@@H](CCC(=O)NC[C@H](O)[C@@H](O)[C@H](O)[C@H](O)CO)NC(=O)CN3CCN4CCN5CCN(CC3)CC(=O)[O][Eu]([O]C(=O)C4)[O]C(=O)C5)CC2)CSCc2cccc(n2)CSC[C@@H](C(=O)NC2CCN(CC(=O)N[C@H](CCC(=O)NC[C@H](O)[C@@H](O)[C@H](O)[C@H](O)CO)C(N)=O)CC2)NC1=O` [GIP-064, Europium-Complex of DOTA-glu(AGLU)-APAc-Asp-Trp-5Clw-Hyp-Glu-leu-[Cys(2Lut)-Thp-Leu-Ile-Cys]-APAc-glu(AGLU)-NH2] (X27-[dE](NH(1-deoxy-D-glucityl))[X1]DW[Trp(5-Cl)][Hyp]E[dL]C[Thp]LIC[X1][dE](NH(1-deoxy-D-glucityl))-NH2; linker 9-13 via Pyridine(2,6-diCH2)) registered an IC50 (pIC50 Category) of less than 0.01 µM.

In the case of `CC[C@H](C)[C@@H]1NC(=O)[C@H](CC(C)C)NC(=O)C2(CCN(C(=O)CN3CCN4CCN5CCN(CC3)CC(=O)[O][Lu]([O]C(=O)C5)[O]C(=O)C4)CC2)NC(=O)[C@@H](NC(=O)[C@@H](CC(C)C)NC(=O)[C@H](CCC(=O)O)NC(=O)[C@@H]2C[C@@H](N)CN2C(=O)[C@H](Cc2c[nH]c3ccc(Cl)cc23)NC(=O)[C@H](Cc2c[nH]c3ccccc23)NC(=O)[C@H](CC(=O)O)NC(=O)CCCC(=O)NC[C@H](O)[C@@H](O)[C@H](O)[C@H](O)CO)CSCc2cccc(n2)CSC[C@@H](C(=O)NC2CCN(CC(=O)N[C@H](CCC(=O)NC[C@H](O)[C@@H](O)[C@H](O)[C@H](O)CO)C(N)=O)CC2)NC1=O` [GIP-067, AGLU-Glutar-Asp-Trp-5Clw-Tap-Glu-leu-[Cys(2Lut)-Apc(LuDOTA)-Leu-Ile-Cys]-APAc-glu(AGLU)-NH2] ({NH(1-deoxy-D-glucityl)-Glutaryl}-DW[Trp(5-Cl)][Pro(4R-NH2)]E[dL]C[Api](DOTA(Lu))LIC[X1][dE](NH(1-deoxy-D-glucityl))-NH2; linker 7-11 via Pyridine(2,6-diCH2)), the “pIC50 Category” value is “A (pIC50 values>8.0)”.

`CC[C@H](C)[C@@H]1NC(=O)[C@H](CC(C)C)NC(=O)C2(CCN(C(=O)CN3CCN4CCN5CCN(CC3)CC(=O)[O][Ga]([O]C(=O)C5)[O]C(=O)C4)CC2)NC(=O)[C@@H](NC(=O)[C@@H](CC(C)C)NC(=O)[C@H](CCC(=O)O)NC(=O)[C@@H]2C[C@@H](O)CN2C(=O)[C@H](Cc2c[nH]c3ccc(Cl)cc23)NC(=O)[C@H](Cc2c[nH]c3ccccc23)NC(=O)[C@H](CC(=O)O)NC(=O)CCCC(=O)NC[C@H](O)[C@@H](O)[C@H](O)[C@H](O)CO)CSCc2cccc(n2)CSC[C@@H](C(=O)NC2CCN(CC(=O)N[C@H](CCC(=O)NC[C@H](O)[C@@H](O)[C@H](O)[C@H](O)CO)C(N)=O)CC2)NC1=O` [GIP-070, AGLU-Glutar-Asp-Trp-5Clw-Hyp-Glu-leu-[Cys(2Lut)-Apc(GaDOTA)-Leu-Ile-Cys]-APAc-glu(AGLU)-NH2] ({NH(1-deoxy-D-glucityl)-Glutaryl}-DW[Trp(5-Cl)][Hyp]E[dL]C[Api](DOTA(Ga))LIC[X1][dE](NH(1-deoxy-D-glucityl))-NH2; linker 7-11 via Pyridine(2,6-diCH2)): the IC50 under setting [1] was less than 0.01 µM.

`CC[C@H](C)[C@@H]1NC(=O)[C@H](CC(C)C)NC(=O)C2(CCN(C(=O)CCCC(=O)NC[C@H](O)[C@@H](O)[C@H](O)[C@H](O)CO)CC2)NC(=O)[C@@H](NC(=O)[C@@H](CC(C)C)NC(=O)[C@H](CCC(=O)O)NC(=O)[C@@H]2C[C@@H](O)CN2C(=O)[C@H](Cc2c[nH]c3ccc(Cl)cc23)NC(=O)[C@H](Cc2c[nH]c3ccccc23)NC(=O)CCC(=O)O)CSCc2cccc(n2)CSC[C@@H](C(=O)NC2CCN(CC(=O)N[C@@H](CCCCNC(=O)CN3CCN(CC(=O)O)CCN(CC(=O)O)CCN(CC(=O)O)CC3)C(N)=O)CC2)NC1=O` [GIP-073, HO-Succinyl-Trp-5Clw-Hyp-Glu-leu-[Cys(2Lut)-Apc(AGLU-Glutar)-Leu-Ile-Cys]-APAc-Lys(DOTA)-NH2] (Suc-W[Trp(5-Cl)][Hyp]E[dL]C[Api]([Glutaryl-NH(1-deoxy-D-glucityl)])LIC[X1]K(DOTA)-NH2; linker 6-10 via Pyridine(2,6-diCH2)): the IC50 under setting [1] was less than 0.01 µM.

For `CC[C@H](C)[C@@H]1NC(=O)[C@H](CC(C)C)NC(=O)C(C)(C)NC(=O)[C@@H](NC(=O)[C@H](CC(C)C)NC(=O)[C@H](CCC(=O)O)NC(=O)[C@@H]2CCCN2C(=O)[C@H](Cc2cccc3ccccc23)NC(=O)[C@H](Cc2c[nH]c3ccccc23)NC(=O)[C@H](CC(=O)O)NC(C)=O)CSCc2cccc(c2)CSC[C@@H](C(=O)NCCCOCCOCCOCCCNC(=O)CCC(=O)N[C@@H](CCCCNC(=O)CN2CCN(CC(=O)O)CCN(CC(=O)O)CCN(CC(=O)O)CC2)C(N)=O)NC1=O` [GIP-074, Ac-Asp-Trp-1Ni-Pro-Glu-Leu-[Cys(3MeBn)-Aib-Leu-Ile-Cys]-Ttds-Lys(DOTA)-NH2] (Ac-DW[1Nal]PELC[Aib]LIC-X5; linker 7-11 via mXylylene), under setting [1], the IC50 was less than 0.01 µM.
